Results reported in the supplement of paper PMC13380429.

Legend:
Conditions in all cases: 72 h
Vero E6 [1] = assay: relative viability EC50 (midpoint between 100% and the lowest measured viability); higher = less toxic
HepG2 [2] = assay: as above
U2OS [3] = assay: as above
Caco-2 [4] = assay: as above
Calu-3 [5] = assay: as above
Vero E6 [6] = assay: cell viability relative to DMSO; higher = less toxic
HepG2 [7] = assay: as above
U2OS [8] = assay: as above
Caco-2 [9] = assay: as above
Calu-3 [10] = assay: as above
Vero E6 [11] = assay: drug sensitivity score (DSS) for viability; higher = more toxic; extreme values may be limits of the assay
HepG2 [12] = assay: as above
U2OS [13] = assay: as above
Caco-2 [14] = assay: as above
Calu-3 [15] = assay: as above

SMILES	relative viability EC50 (Vero E6 [1])	relative viability EC50 (HepG2 [2])	relative viability EC50 (U2OS [3])	relative viability EC50 (Caco-2 [4])	relative viability EC50 (Calu-3 [5])	cell viability (Vero E6 [6]; 1 nM)	cell viability (Vero E6 [6]; 10 nM)	cell viability (Vero E6 [6]; 100 nM)	cell viability (Vero E6 [6]; 1000 nM)	cell viability (Vero E6 [6]; 10000 nM)	cell viability (HepG2 [7]; 1 nM)	cell viability (HepG2 [7]; 10 nM)	cell viability (HepG2 [7]; 100 nM)	cell viability (HepG2 [7]; 1000 nM)	cell viability (HepG2 [7]; 10000 nM)	cell viability (U2OS [8]; 1 nM)	cell viability (U2OS [8]; 10 nM)	cell viability (U2OS [8]; 100 nM)	cell viability (U2OS [8]; 1000 nM)	cell viability (U2OS [8]; 10000 nM)	cell viability (Caco-2 [9]; 1 nM)	cell viability (Caco-2 [9]; 10 nM)	cell viability (Caco-2 [9]; 100 nM)	cell viability (Caco-2 [9]; 1000 nM)	cell viability (Caco-2 [9]; 10000 nM)	cell viability (Calu-3 [10]; 1 nM)	cell viability (Calu-3 [10]; 10 nM)	cell viability (Calu-3 [10]; 100 nM)	cell viability (Calu-3 [10]; 1000 nM)	cell viability (Calu-3 [10]; 10000 nM)	drug sensitivity score (Vero E6 [11])	drug sensitivity score (HepG2 [12])	drug sensitivity score (U2OS [13])	drug sensitivity score (Caco-2 [14])	drug sensitivity score (Calu-3 [15])
COC1CCN(c2cccc(-c3cc(NC(C)=O)nc(-n4nc(C)cc4C)n3)n2)CC1 [TC-G-1004]	> 10 µM	1.12 µM	> 10 µM	2.88 µM	> 10 µM	103%	107%	101%	104%	86.7%	84.7%	101%	75.3%	90.9%	44%	105%	97.6%	104%	102%	95%	106%	89.3%	111%	96.9%	20.7%	103%	94.9%	103%	91.8%	93.1%	0.1	5.5	0	4.8	0
Cn1c(=O)c2c(ncn2CCO)n(C)c1=O [etofylline]	> 10 µM	> 10 µM	> 10 µM	> 10 µM	> 10 µM	104%	98%	103%	103%	103%	101%	110%	88.8%	96.6%	102%	102%	97.4%	97%	98.8%	98.4%	103%	98%	90.5%	102%	97.6%	97.8%	99.6%	97%	98.2%	102%	0	0	0	0	0
O=C(NNc1nc2cc(F)ccc2n2cccc12)c1cnccn1 [SC-144]	0.368 µM	0.323 µM	0.513 µM	0.17 µM	0.27 µM	97.1%	100%	82.7%	43.6%	21.9%	96%	98.3%	101%	15.2%	20.2%	104%	99.3%	91.8%	40.1%	15.9%	93.3%	101%	80.4%	6.6%	13.8%	102%	95.9%	93.3%	6%	3.9%	12.6	15.3	12.5	20	18.1
C[C@@H]1CC[C@@]2(NC1)O[C@H]1C[C@H]3[C@@H]4CC=C5C[C@@H](O[C@@H]6O[C@H](CO)[C@@H](O[C@@H]7O[C@@H](C)[C@H](O)[C@@H](O)[C@H]7O)[C@H](O)[C@H]6O[C@@H]6O[C@@H](C)[C@H](O)[C@@H](O)[C@H]6O)CC[C@]5(C)[C@H]4CC[C@]3(C)[C@H]1[C@@H]2C [solamargine]	2.51 µM	2.32 µM	3.1 µM	2.86 µM	3.34 µM	101%	95.2%	97.4%	91.9%	0%	104%	102%	102%	89.8%	0.2%	95.7%	103%	97.5%	99.1%	0.4%	92%	98%	94.6%	96%	0.4%	89%	96.7%	85.8%	103%	1%	6.8	7.2	5.7	6.1	5.3
CS(=O)(=O)Oc1ccc2c(NC(N)=O)c(C(=O)c3ccc(Cl)cc3Cl)oc2c1 [lirimilast]	> 10 µM	> 10 µM	> 10 µM	> 10 µM	> 10 µM	98.6%	94.7%	97%	84.4%	99.6%	94.3%	89.7%	106%	94.7%	95.9%	95.5%	99%	97.9%	107%	102%	98.5%	96.3%	102%	108%	110%	98.8%	106%	91.4%	101%	104%	0	0	0	0	0
C[C@@]1(F)[C@H](O)[C@@H](CO)O[C@H]1n1ccc(N)nc1=O [PSI-6130]	> 10 µM	> 10 µM	> 10 µM	> 10 µM	> 10 µM	101%	93.3%	100%	92.5%	106%	103%	91.8%	106%	100%	107%	95.5%	101%	96.9%	100%	107%	94.8%	96.8%	94.7%	103%	108%	99.3%	99.6%	96%	100%	96.7%	0	0	0	0	0
O=C(CC12CC3CC(CC(C3)C1)C2)Nc1cccc2nc(NCCNCCO)ccc12	> 10 µM	> 10 µM	> 10 µM	> 10 µM	> 10 µM	96%	102%	95.8%	91.4%	100%	97.5%	94.7%	93.7%	96.8%	99.9%	96.1%	102%	95.2%	97.9%	95.1%	91.2%	93.1%	93.8%	91.8%	91.8%	99%	101%	92.1%	98.4%	94.9%	0	0	0	0	0
